Test results reported in patent publication US9867861B2, “Process for the large scale production of fruit cells and treatment of diseases with such cells” (priority 2012, dated 2018).

Key:
[1] = Solubility assay of resveratrol sources in water; format: physicochemical; details: acidified water (pH=2) as well as pH 7.0
[2] = system: carrageenan induced rat paw edema; details: resveratrol 50 mg/kg body weight before carrageenan; Gentilli et al (2001); cited from earlier work
[3] = system: carrageenan induced rat paw edema; experiment: Carrageenan induced rat paw edema, paw volume measurements; format: in vivo; details: indomethacin 2 mg/kg 2 h before carrageenan; vs vehicle control
Text: The aim of the present study was to evaluate the in vivo anti-inflammatory activity of RGC (Red Grape Cells) made according to the large scale process of the invention in an acute inflammation model in rats so as to verify the efficiency of the cells produced according to the invention. One of the experimental model most widely used to study acute inflammation in rodents is that based on the intraplantar administration of carrageenan. The study assessed the efficacy of the RGC by two methods: • 1. Paw volume measurements • 2. […] The rats in all groups were injected with 1% carrageenan (0.1 mg/paw) or sterile saline (0.9% NaCl) into the sub plantar tissue of left hind paw of each rat. • The Following Tests were Performed: • Paw Volumes Measurements • Carrageenan injected paw volumes were measured hourly just before carrageenan injection 0 and 1, 2, 4 hours after injection using caliper. • The paw dimensions were measured in two axes and paw volume was calculated. Paw edema volume in this model was an indication of the inflammation severity. • For each time point, the change in paw volume was calculated either by subtracting the baseline paw volume or as % of baseline paw volume. […]

[4] = system: carrageenan-induced hind paw inflammation (hyperalgesia); experiment: Hot plate method, inflammatory nociception in freely moving rats after carrageenan; format: in vivo, rat; details: indomethacin 2 mg/kg, vs vehicle control
Method: The study assessed the efficacy of the RGC by two methods: • 1. Paw volume measurements • 2. Inflammatory nociception in freely moving rats Materials and Methods: Red Grape Cells (RGC) prepared according to example 1. • RGC was administered orally at dose of 400 mg/kg body weight (2 ml/40 mg) as a suspension in sterile drinking water, 2 h before carrageenan injection. • RGC Composition: […] Rats were divided into three groups of eight rats in each group. The rats in all groups were injected with 1% carrageenan (0.1 mg/paw) or sterile saline (0.9% NaCl) into the sub plantar tissue of left hind paw of each rat. • The Following Tests were Performed: • Paw Volumes Measurements • Carrageenan injected paw volumes were measured hourly just before carrageenan injection 0 and 1, 2, 4 hours after injection using caliper. • The paw dimensions were measured in two axes and paw volume was calculated. Paw edema volume in this model was an indication of the inflammation severity. • For each time point, the change in paw volume was calculated either by subtracting the baseline paw volume or as % of baseline paw volume. Hot Plate Method for Measuring Inflammatory Nociception in Freely Moving Rats The hot plate method was used to determine inflammatory nociception in freely moving rates. […]

Row | SMILES | Dissolution of RES in water, percentage compared to dissolution in 80% methanol [1] [%] | Paw edema [2] | Paw edema (volume %) [3] | Hot plate latency, % from baseline [4] | Hot plate latency delta, baseline-actual time ([4]; 2 and 4 h)
1 | Oc1ccc(/C=C/c2cc(O)cc(O)c2)cc1 [Synthetic-RES, trans-3,5,4′-trihydroxystilbene] | 7 | failed to reduce paw edema |  |  | 
2 | COc1ccc2c(c1)c(CC(=O)O)c(C)n2C(=O)c1ccc(Cl)cc1 [indomethacin] |  |  | statistically significant difference at 2 and 4 h | statistically significant difference at 2 and 4 h | significant decrease in the latency delta
